Measurements taken from patent US8722910B2, “Diyne compositions” (Evolva AG, priority 2009, dated 2014).

Tested on: H. capsulatum
Experiment: microbe, parasite or virus in culture
Type: cell-based

O=C([O-])CCCCCCC/C=C\C#CC#Cc1ccco1.[K+] [Compound IV″, potassium (Z)-14-(furan-2-yl)tetradeca-9-en-11,13-diynoate]
MIC90/MIC range 48 h (H. capsulatum (n = 20), MIC90, 48 h): 0.03 µg/mL
MIC90 (Histoplasma capsulatum, 120 h): 0.03 µg/mL
